From ChEMBL document CHEMBL4507277

Legend:
[1] = target: Leucine-rich repeat serine/threonine-protein kinase 2 (Homo sapiens) (UniProt Q5S007); details: Compound concentration 1000.0 nM
[2] = tested on: Epidermal growth factor receptor (Homo sapiens), P00533 [UNDEFINED MUTATION]; details: Compound concentration 1000.0 nM
[3] = target: Proto-oncogene tyrosine-protein kinase Src (Homo sapiens) (UniProt P12931); details: Compound concentration 1000.0 nM
[4] = target: Peripheral plasma membrane protein CASK (Homo sapiens) (UniProt O14936); details: Compound concentration 1000.0 nM
[5] = target: STE20-like serine/threonine-protein kinase (Homo sapiens) (UniProt Q9H2G2); details: Compound concentration 1000.0 nM
[6] = target: Serine/threonine-protein kinase PAK 1 (Homo sapiens) (UniProt Q13153); details: Compound concentration 1000.0 nM
[7] = target: Proto-oncogene tyrosine-protein kinase receptor Ret (Homo sapiens) (UniProt P07949); details: Compound concentration 1000.0 nM
[8] = target: Ephrin type-A receptor 3 (Homo sapiens) (UniProt P29320); details: Compound concentration 1000.0 nM
[9] = target: Serine/threonine-protein kinase B-raf (Homo sapiens) (UniProt P15056); details: Compound concentration 1000.0 nM
[10] = target: Interleukin-1 receptor-associated kinase 3 (Homo sapiens) (UniProt Q9Y616); details: Compound concentration 1000.0 nM
[11] = target: Dual specificity protein kinase CLK4 (Homo sapiens) (UniProt Q9HAZ1); details: Compound concentration 1000.0 nM
[12] = target: Serine/threonine-protein kinase 16 (Homo sapiens) (UniProt O75716); details: Compound concentration 1000.0 nM
[13] = target: Serine/threonine-protein kinase ULK3 (Homo sapiens) (UniProt Q6PHR2); details: Compound concentration 1000.0 nM
[14] = target: Mitogen-activated protein kinase 9 (Homo sapiens) (UniProt P45984); details: Compound concentration 1000.0 nM
[15] = target: Protein kinase C delta type (Homo sapiens) (UniProt Q05655); details: Compound concentration 1000.0 nM
[16] = target: Dual specificity protein kinase CLK1 (Homo sapiens) (UniProt P49759); details: Compound concentration 1000.0 nM
[17] = tested on: Tyrosine-protein kinase ABL1 (Homo sapiens), P00519 [F317L]; details: Compound concentration 1000.0 nM
[18] = target: Myosin-IIIb (Homo sapiens) (UniProt Q8WXR4); details: Compound concentration 1000.0 nM
[19] = target: Receptor-type tyrosine-protein kinase FLT3 (Homo sapiens) (UniProt P36888); details: Compound concentration 1000.0 nM
[20] = target: Serine/threonine-protein kinase tousled-like 2 (Homo sapiens) (UniProt Q86UE8); details: Compound concentration 1000.0 nM
[21] = target: Serine/threonine-protein kinase pim-1 (Homo sapiens) (UniProt P11309); details: Compound concentration 1000.0 nM
[22] = target: Serine/threonine-protein kinase PknB (Mycobacterium tuberculosis) (UniProt P9WI81); details: Compound concentration 1000.0 nM
[23] = target: Dual specificity mitogen-activated protein kinase kinase 3 (Homo sapiens) (UniProt P46734); details: Compound concentration 1000.0 nM
[24] = target: 5-hydroxytryptamine receptor 1D (Homo sapiens) (UniProt P28221); details: Compound concentration 10.0 uM
[25] = target: Megakaryocyte-associated tyrosine-protein kinase (Homo sapiens) (UniProt P42679); details: Compound concentration 1000.0 nM
[26] = target: Activin receptor type-1B (Homo sapiens) (UniProt P36896); details: Compound concentration 1000.0 nM
[27] = target: Mitogen-activated protein kinase kinase kinase 7 (Homo sapiens) (UniProt O43318); details: Compound concentration 1000.0 nM
[28] = target: Mitogen-activated protein kinase 4 (Homo sapiens) (UniProt P31152); details: Compound concentration 1000.0 nM
[29] = target: Hormonally up-regulated neu tumor-associated kinase (Homo sapiens) (UniProt P57058); details: Compound concentration 1000.0 nM
[30] = target: Serine/threonine-protein kinase 35 (Homo sapiens) (UniProt Q8TDR2); details: Compound concentration 1000.0 nM
[31] = target: Serine/threonine-protein kinase 32C (Homo sapiens) (UniProt Q86UX6); details: Compound concentration 1000.0 nM
[32] = target: Activated CDC42 kinase 1 (Homo sapiens) (UniProt Q07912); details: Compound concentration 1000.0 nM
[33] = target: Tyrosine-protein kinase receptor TYRO3 (Homo sapiens) (UniProt Q06418); details: Compound concentration 1000.0 nM
[34] = target: Dual specificity mitogen-activated protein kinase kinase 6 (Homo sapiens) (UniProt P52564); details: Compound concentration 1000.0 nM
[35] = target: Cyclin-dependent kinase 19 (Homo sapiens) (UniProt Q9BWU1); details: Compound concentration 1000.0 nM
[36] = target: Serine/threonine-protein kinase BRSK2 (Homo sapiens) (UniProt Q8IWQ3); details: Compound concentration 1000.0 nM
[37] = target: Death-associated protein kinase 2 (Homo sapiens) (UniProt Q9UIK4); details: Compound concentration 1000.0 nM
[38] = target: SNF-related serine/threonine-protein kinase (Homo sapiens) (UniProt Q9NRH2); details: Compound concentration 1000.0 nM
[39] = target: MAP kinase-activated protein kinase 5 (Homo sapiens) (UniProt Q8IW41); details: Compound concentration 1000.0 nM
[40] = target: Interleukin-1 receptor-associated kinase 1 (Homo sapiens) (UniProt P51617); details: Compound concentration 1000.0 nM
[41] = target: Cyclin-dependent kinase 4 (Homo sapiens) (UniProt P11802); details: Compound concentration 1000.0 nM
[42] = target: Mitogen-activated protein kinase 3 (Homo sapiens) (UniProt P27361); details: Compound concentration 1000.0 nM
[43] = target: Tyrosine-protein kinase JAK1 (Homo sapiens) (UniProt P23458); details: Compound concentration 1000.0 nM
[44] = target: 5'-AMP-activated protein kinase catalytic subunit alpha-2 (Homo sapiens) (UniProt P54646); details: Compound concentration 1000.0 nM
[45] = tested on: Tyrosine-protein kinase ABL1 (Homo sapiens), P00519 [H396P]; details: Compound concentration 1000.0 nM

Mitogen-activated protein kinase 9 (Homo sapiens), sequence (P45984 whole entry, looked up): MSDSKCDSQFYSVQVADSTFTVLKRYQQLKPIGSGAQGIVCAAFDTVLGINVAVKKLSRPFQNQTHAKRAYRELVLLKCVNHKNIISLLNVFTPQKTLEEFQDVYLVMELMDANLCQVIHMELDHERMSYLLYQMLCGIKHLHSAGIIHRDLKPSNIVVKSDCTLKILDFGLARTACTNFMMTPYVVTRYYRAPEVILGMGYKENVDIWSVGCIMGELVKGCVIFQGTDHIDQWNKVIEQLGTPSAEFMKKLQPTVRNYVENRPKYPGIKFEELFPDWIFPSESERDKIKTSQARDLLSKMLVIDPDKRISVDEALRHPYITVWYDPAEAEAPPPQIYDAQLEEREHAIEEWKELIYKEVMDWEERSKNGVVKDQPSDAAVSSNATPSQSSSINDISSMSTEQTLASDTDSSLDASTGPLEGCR
Mitogen-activated protein kinase kinase kinase 7 (Homo sapiens), sequence (O43318 whole entry): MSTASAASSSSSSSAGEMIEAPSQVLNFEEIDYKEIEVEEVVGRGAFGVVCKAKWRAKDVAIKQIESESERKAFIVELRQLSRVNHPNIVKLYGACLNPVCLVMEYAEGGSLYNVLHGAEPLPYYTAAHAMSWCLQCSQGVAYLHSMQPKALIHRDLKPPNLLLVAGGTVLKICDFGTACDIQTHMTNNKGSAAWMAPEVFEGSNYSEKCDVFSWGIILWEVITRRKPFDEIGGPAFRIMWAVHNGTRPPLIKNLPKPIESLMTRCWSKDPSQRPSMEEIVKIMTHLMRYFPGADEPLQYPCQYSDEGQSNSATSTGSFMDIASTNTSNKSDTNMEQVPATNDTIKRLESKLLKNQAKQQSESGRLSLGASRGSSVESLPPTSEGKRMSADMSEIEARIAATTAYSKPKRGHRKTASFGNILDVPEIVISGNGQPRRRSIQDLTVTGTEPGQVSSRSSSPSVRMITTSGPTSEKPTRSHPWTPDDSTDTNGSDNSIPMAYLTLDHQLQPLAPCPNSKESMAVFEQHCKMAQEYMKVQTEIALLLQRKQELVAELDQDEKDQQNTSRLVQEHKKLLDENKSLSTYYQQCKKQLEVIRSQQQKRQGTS
5'-AMP-activated protein kinase catalytic subunit alpha-2 (Homo sapiens), sequence (P54646 whole entry, looked up): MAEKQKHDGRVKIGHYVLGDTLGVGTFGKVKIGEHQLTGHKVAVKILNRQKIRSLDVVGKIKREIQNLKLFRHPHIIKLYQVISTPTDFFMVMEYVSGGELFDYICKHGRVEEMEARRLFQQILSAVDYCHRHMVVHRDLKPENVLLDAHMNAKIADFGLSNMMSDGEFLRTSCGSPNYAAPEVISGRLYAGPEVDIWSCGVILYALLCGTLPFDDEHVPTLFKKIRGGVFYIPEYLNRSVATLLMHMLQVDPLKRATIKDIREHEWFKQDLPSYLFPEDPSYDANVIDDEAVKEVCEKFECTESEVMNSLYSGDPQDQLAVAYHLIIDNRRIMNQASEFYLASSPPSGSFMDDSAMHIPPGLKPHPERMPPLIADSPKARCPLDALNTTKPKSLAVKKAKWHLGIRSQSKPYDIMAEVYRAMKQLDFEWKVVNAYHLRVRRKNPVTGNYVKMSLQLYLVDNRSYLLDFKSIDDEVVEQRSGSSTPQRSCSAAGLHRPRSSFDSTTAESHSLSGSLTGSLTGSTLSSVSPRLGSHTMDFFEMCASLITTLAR
Dual specificity mitogen-activated protein kinase kinase 6 (Homo sapiens), sequence (P52564 whole entry): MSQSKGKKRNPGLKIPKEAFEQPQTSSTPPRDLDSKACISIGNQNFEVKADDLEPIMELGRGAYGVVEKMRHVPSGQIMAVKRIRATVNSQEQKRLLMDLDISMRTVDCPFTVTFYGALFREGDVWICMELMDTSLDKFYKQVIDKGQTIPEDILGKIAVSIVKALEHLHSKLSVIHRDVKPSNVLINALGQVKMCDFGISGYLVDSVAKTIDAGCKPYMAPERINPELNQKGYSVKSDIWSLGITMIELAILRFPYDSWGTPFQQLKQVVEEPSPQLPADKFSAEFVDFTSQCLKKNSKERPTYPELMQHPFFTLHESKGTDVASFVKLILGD
Serine/threonine-protein kinase 16 (Homo sapiens), sequence (O75716 whole entry): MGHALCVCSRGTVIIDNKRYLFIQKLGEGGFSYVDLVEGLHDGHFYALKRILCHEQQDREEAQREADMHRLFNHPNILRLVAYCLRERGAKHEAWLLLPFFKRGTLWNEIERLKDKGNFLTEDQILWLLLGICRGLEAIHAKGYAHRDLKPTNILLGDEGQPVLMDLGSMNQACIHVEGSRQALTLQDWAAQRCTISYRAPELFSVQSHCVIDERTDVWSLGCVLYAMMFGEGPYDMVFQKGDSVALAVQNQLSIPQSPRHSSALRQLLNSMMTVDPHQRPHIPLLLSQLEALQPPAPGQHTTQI
SNF-related serine/threonine-protein kinase (Homo sapiens), sequence (Q9NRH2 whole entry): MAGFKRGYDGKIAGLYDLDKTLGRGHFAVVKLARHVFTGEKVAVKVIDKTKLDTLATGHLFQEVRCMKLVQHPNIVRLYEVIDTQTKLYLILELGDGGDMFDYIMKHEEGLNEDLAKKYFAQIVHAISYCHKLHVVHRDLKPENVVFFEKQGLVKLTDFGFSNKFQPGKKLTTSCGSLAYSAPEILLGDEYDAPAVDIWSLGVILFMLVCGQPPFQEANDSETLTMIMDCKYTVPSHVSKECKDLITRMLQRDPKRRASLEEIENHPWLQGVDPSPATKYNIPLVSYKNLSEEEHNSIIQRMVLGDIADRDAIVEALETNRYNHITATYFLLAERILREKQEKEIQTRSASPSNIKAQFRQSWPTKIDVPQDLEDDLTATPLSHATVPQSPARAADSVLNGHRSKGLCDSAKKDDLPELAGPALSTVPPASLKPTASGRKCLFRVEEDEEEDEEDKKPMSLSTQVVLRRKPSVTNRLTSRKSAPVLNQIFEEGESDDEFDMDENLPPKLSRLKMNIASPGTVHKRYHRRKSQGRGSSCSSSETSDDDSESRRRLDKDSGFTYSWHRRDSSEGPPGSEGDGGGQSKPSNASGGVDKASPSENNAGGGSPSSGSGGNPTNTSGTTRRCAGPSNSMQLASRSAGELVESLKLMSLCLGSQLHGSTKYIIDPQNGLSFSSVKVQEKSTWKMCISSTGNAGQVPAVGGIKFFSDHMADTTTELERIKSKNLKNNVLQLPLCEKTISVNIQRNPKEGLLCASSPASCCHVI
Serine/threonine-protein kinase 32C (Homo sapiens), sequence (Q86UX6 whole entry): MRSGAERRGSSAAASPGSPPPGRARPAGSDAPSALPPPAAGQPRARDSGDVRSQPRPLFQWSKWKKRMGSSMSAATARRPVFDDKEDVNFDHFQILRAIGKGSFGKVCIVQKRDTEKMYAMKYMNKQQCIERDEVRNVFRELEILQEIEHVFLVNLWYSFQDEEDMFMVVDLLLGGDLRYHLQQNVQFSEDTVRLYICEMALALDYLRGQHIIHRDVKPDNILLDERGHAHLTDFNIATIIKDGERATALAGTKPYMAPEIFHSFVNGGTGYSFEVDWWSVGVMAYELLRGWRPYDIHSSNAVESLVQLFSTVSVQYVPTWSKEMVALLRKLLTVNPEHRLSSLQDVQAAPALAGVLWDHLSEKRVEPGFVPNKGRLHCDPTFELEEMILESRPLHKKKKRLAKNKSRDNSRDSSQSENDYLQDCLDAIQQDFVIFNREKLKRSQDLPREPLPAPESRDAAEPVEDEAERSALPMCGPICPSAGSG
Ephrin type-A receptor 3 (Homo sapiens), sequence (P29320 whole entry): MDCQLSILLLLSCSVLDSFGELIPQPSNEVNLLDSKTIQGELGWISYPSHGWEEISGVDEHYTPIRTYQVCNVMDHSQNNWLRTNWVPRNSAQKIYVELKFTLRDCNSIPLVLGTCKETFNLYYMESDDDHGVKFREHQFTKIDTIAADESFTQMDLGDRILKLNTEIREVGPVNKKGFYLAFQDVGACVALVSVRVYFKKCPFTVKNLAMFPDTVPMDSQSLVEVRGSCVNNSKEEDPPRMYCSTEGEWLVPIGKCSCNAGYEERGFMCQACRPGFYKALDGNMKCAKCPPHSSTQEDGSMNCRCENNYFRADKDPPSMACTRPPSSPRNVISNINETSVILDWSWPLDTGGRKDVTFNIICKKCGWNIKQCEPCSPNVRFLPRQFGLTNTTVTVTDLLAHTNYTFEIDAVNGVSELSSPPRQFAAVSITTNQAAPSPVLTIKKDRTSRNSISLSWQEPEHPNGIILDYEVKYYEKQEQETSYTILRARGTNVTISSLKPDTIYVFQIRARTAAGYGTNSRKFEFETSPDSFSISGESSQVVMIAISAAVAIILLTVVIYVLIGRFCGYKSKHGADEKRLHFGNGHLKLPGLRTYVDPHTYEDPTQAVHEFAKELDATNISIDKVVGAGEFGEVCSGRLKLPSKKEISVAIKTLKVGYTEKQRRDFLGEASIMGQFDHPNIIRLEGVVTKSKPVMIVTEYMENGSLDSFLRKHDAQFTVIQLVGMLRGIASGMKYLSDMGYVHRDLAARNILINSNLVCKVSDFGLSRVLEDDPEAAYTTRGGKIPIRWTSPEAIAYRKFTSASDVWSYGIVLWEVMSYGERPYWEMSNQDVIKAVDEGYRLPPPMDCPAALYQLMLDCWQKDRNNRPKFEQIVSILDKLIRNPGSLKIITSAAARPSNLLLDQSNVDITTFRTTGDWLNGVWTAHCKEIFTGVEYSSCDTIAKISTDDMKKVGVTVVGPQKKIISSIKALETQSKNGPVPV
Serine/threonine-protein kinase PAK 1 (Homo sapiens), sequence (Q13153 whole entry): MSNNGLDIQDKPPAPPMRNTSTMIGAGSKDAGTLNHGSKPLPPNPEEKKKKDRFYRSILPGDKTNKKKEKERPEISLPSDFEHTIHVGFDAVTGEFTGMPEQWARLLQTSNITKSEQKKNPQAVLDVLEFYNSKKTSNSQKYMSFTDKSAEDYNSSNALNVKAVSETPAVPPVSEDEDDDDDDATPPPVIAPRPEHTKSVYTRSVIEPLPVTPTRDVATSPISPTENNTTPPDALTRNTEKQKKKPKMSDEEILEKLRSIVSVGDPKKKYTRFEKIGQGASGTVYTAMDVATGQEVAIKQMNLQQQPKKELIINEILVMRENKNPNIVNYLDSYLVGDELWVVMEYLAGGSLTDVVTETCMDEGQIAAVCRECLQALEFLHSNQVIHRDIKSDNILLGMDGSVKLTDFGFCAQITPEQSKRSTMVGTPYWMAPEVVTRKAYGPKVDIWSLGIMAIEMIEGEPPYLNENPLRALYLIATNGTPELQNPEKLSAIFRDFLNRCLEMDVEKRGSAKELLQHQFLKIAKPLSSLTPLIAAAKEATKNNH

CCS(=O)(=O)c1cc2cc(C[C@@](O)(CC(C)(C)c3ccc(F)cc3C(N)=O)C(F)(F)F)[nH]c2cn1
residual activity [1]: 42%
residual activity [2]: 69%
residual activity [3]: 100%
residual activity [4]: 100%
residual activity [5]: 88%
residual activity [6]: 100%
residual activity [7]: 100%
residual activity [8]: 85%
residual activity [9]: 69%
residual activity [10]: 67%
residual activity [11]: 100%
residual activity [12]: 91%
residual activity [13]: 98%
residual activity [14]: 84%
residual activity [15]: 99%
residual activity [16]: 100%
residual activity [17]: 61%
residual activity [18]: 79%
residual activity [19]: 97%
residual activity [20]: 97%
residual activity [21]: 97%
residual activity [22]: 84%
residual activity [23]: 67%
inhibition [24]: 7.98%
residual activity [25]: 100%
residual activity [26]: 100%
residual activity [27]: 92%
residual activity [28]: 84%
residual activity [29]: 100%
residual activity [30]: 100%
residual activity [31]: 90%
residual activity [32]: 100%
residual activity [33]: 92%
residual activity [34]: 84%
residual activity [35]: 100%
residual activity [36]: 72%
residual activity [37]: 100%
residual activity [38]: 98%
residual activity [39]: 81%
residual activity [40]: 80%
residual activity [41]: 97%
residual activity [42]: 98%
residual activity [43]: 90%
residual activity [44]: 100%
residual activity [45]: 99%

CCS(=O)(=O)c1cc2cc(C[C@](O)(CC(C)(C)c3ccc(F)cc3C(N)=O)C(F)(F)F)[nH]c2cn1
residual activity [1]: 100%
residual activity [2]: 83%
residual activity [3]: 100%
residual activity [4]: 100%
residual activity [5]: 100%
residual activity [6]: 95%
residual activity [7]: 93%
residual activity [8]: 95%
residual activity [9]: 100%
residual activity [10]: 96%
residual activity [11]: 95%
residual activity [12]: 100%
residual activity [13]: 100%
residual activity [14]: 100%
residual activity [15]: 100%
residual activity [16]: 99%
residual activity [17]: 90%
residual activity [18]: 100%
residual activity [19]: 87%
residual activity [20]: 100%
residual activity [21]: 100%
residual activity [22]: 95%
residual activity [23]: 100%
inhibition [24]: 5.54%
residual activity [25]: 100%
residual activity [26]: 100%
residual activity [27]: 100%
residual activity [28]: 100%
residual activity [29]: 100%
residual activity [30]: 100%
residual activity [31]: 100%
residual activity [32]: 100%
residual activity [33]: 81%
residual activity [34]: 80%
residual activity [35]: 100%
residual activity [36]: 100%
residual activity [37]: 90%
residual activity [38]: 100%
residual activity [39]: 93%
residual activity [40]: 99%
residual activity [41]: 96%
residual activity [42]: 93%
residual activity [43]: 95%
residual activity [44]: 97%
residual activity [45]: 89%
